Source: US6737383B1, “Herbicidal oxadiazolidines” (priority 1999, dated 2004)

Tests used:
bedstraw = assay: Test B pre/postemergence bedstraw; assay type: in vivo, Galium aparine
In short: (§1)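 Test chemicals in a non-phytotoxic solvent mixture with surfactant were sprayed preemergence onto planted seeds and postemergence onto plants 2 to 18 cm tall (1- to 4-leaf stage). After twelve to sixteen days in a greenhouse, injury was visually rated against untreated controls from 0 (no effect) to 10 (complete control).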

surinam grass = assay: Test B pre/postemergence surinam grass; assay type: in vivo, Brachiaria decumbens
In short: as §1

cocklebur = assay: Test B pre/postemergence cocklebur; assay type: in vivo, Xanthium strumarium
In short: as §1

corn = assay: Test B pre/postemergence corn; assay type: in vivo, Zea mays
In short: as §1

crabgrass = assay: Test B pre/postemergence crabgrass; assay type: in vivo, Digitaria sanguinalis
In short: as §1

morningglory = assay: Test B pre/postemergence morningglory; assay type: in vivo, Ipomoea hederacea
In short: as §1

pigweed = assay: Test B pre/postemergence pigweed; assay type: in vivo, Amaranthus retroflexus
In short: as §1

rape = assay: Test B pre/postemergence rape; assay type: in vivo, Brassica napus
In short: as §1

soybean = assay: Test B pre/postemergence soybean; assay type: in vivo, Glycine max
In short: as §1

sugar beet = assay: Test B pre/postemergence sugar beet; assay type: in vivo, Beta vulgaris
In short: as §1

velvetleaf = assay: Test B pre/postemergence velvetleaf; assay type: in vivo, Abutilon theophrasti
In short: as §1

wild oat = assay: Test B pre/postemergence wild oat; assay type: in vivo, Avena fatua
In short: as §1

rice = assay: Test B flood test rice; assay type: in vivo, Oryza sativa
In short: (§2)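 Read-out is a visual response score from 0 (no effect) to 10 (complete control), assigned by comparison with untreated controls. Treatment was applied at the 2-leaf stage, and plants stayed in the greenhouse for twelve to sixteen days before scoring.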

smallflower flatsedge = assay: Test B flood test smallflower flatsedge; assay type: in vivo, Cyperus difformis
In short: as §2

duck salad = assay: Test B flood test duck salad; assay type: in vivo, Heteranthera limosa
In short: as §2

bamyardgrass = assay: Test B flood test barnyardgrass; assay type: in vivo, Echinochloa crus-galli
In short: as §2

[1] = Preemergence, Rate 62 g/ha, scale of 0 to 10 where 0 is no effect and 10 is complete control
[2] = Preemergence, Rate 250 g/ha, scale of 0 to 10 where 0 is no effect and 10 is complete control
[3] = Preemergence, Rate 500 g/ha, scale of 0 to 10 where 0 is no effect and 10 is complete control
[4] = Rate 62 g/ha, Postemergence, scale of 0 to 10 where 0 is no effect and 10 is complete control
[5] = Rate 125 g/ha, Postemergence, scale 0 to 10
[6] = Rate 125 g/ha, Preemergence, scale of 0 to 10 where 0 is no effect and 10 is complete control
[7] = Rate 500 g/ha, Postemergence, scale 0 to 10, 0 no effect, 10 complete control
[8] = Rate 62 g/ha, headed Pre-emergence (flood test species), scale 0 to 10 (0 no effect, 10 complete control)
[9] = Rate 125 g/ha, Pre-emergence, flood test species, scale 0 to 10 where 0 is no effect and 10 is complete control
[10] = Rate 250 g/ha, Pre-emergence, flood-test species, scale 0 to 10, 0 is no effect, 10 is complete control
[11] = Rate 500 g/ha, Pre-emergence, flood test species, scale 0 to 10 (0 no effect, 10 complete control)

**Q.** What does the source list for `Cc1ccccc1N(C(=O)n1oc(=O)n(-c2ccccc2C)c1=O)C(C)C` [Compound 236]?
**A.** Bedstraw plant response rating (bedstraw; [1]): 0; Bedstraw plant response rating (bedstraw; [2]): 0; Plant response rating, Bedstraw (bedstraw; [3]): 0; Bedstraw plant response rating (bedstraw; [4]): 0; Bedstraw plant response rating (bedstraw; [5]): 0; Bedstraw plant response rating (bedstraw; [6]): 0; Plant response rating (0 to 10; 0 is no effect, 10 is complete control), Bedstraw (bedstraw; Rate 250 g/ha, Postemergence): 0; Bedstraw plant response rating (bedstraw; [7]): 4; B. signalgrass plant response rating (surinam grass; [1]): 0; B. signalgrass plant response rating (surinam grass; Preemergence, Rate 250 g/ha, scale 0 to 10, 0 is no effect, 10 is complete control): 0; Plant response rating, B. signalgrass (surinam grass; [3]): 3; B. signalgrass plant response rating (surinam grass; [4]): 0; B. signalgrass plant response rating (surinam grass; Rate 125 g/ha, Postemergence, scale 0 (no effect) to 10 (complete control)): 0; B. signalgrass plant response rating (surinam grass; [6]): 0; Plant response rating (0 to 10; 0 is no effect, 10 is complete control), B. signalgrass (surinam grass; Rate 250 g/ha, Postemergence): 0; B. signalgrass plant response rating (surinam grass; [7]): 0; Cocklebur plant response rating (cocklebur; [1]): 0; Cocklebur plant response rating (cocklebur; [2]): 0; Plant response rating, Cocklebur (cocklebur; [3]): 0; Cocklebur plant response rating (cocklebur; [4]): 0; Cocklebur plant response rating (cocklebur; [5]): 0; Cocklebur plant response rating (cocklebur; [6]): 0; Plant response rating (0 to 10; 0 is no effect, 10 is complete control), Cocklebur (cocklebur; Rate 250 g/ha, Postemergence): 0; Cocklebur plant response rating (cocklebur; [7]): 0; Corn plant response rating (corn; [1]): 0; Corn plant response rating (corn; [2]): 0; Plant response rating, Corn (corn; [3]): 0; Corn plant response rating (corn; [4]): 0; Corn plant response rating (corn; [5]): 0; Corn plant response rating (corn; [6]): 0; Plant response rating (0 to 10; 0 is no effect, 10 is complete control), Corn (corn; Rate 250 g/ha, Postemergence): 0; Corn plant response rating (corn; [7]): 0; Crabgrass plant response rating (crabgrass; [1]): 2; Crabgrass plant response rating (crabgrass; [2]): 5; Plant response rating, Crabgrass (crabgrass; [3]): 5; Crabgrass plant response rating (crabgrass; [4]): 0; Crabgrass plant response rating (crabgrass; [5]): 0; Crabgrass plant response rating (crabgrass; [6]): 3; Plant response rating (0 to 10; 0 is no effect, 10 is complete control), Crabgrass (crabgrass; Rate 250 g/ha, Postemergence): 0; Crabgrass plant response rating (crabgrass; [7]): 0; Morningglory plant response rating (morningglory; [1]): 0; Morningglory plant response rating (morningglory; [2]): 0; Plant response rating, Morningglory (morningglory; [3]): 0; Morningglory plant response rating (morningglory; [4]): 4; Morningglory plant response rating (morningglory; [5]): 4; Morningglory plant response rating (morningglory; [6]): 0; Plant response rating (0 to 10; 0 is no effect, 10 is complete control), Morningglory (morningglory; Rate 250 g/ha, Postemergence): 5; Morningglory plant response rating (morningglory; [7]): 6; Redroot pigweed plant response rating (pigweed; [1]): 0; Redroot pigweed plant response rating (pigweed; [2]): 0; Plant response rating, Redroot pigweed (pigweed; [3]): 0; Redroot pigweed plant response rating (pigweed; [4]): 0; Redroot pigweed plant response rating (pigweed; [5]): 0; Redroot pigweed plant response rating (pigweed; [6]): 0; Plant response rating (0 to 10; 0 is no effect, 10 is complete control), Redroot pigweed (pigweed; Rate 250 g/ha, Postemergence): 0; Redroot pigweed plant response rating (pigweed; [7]): 0; Rape plant response rating (rape; [1]): 0; Rape plant response rating (rape; [2]): 0; Plant response rating, Rape (rape; [3]): 0; Rape plant response rating (rape; [4]): 0; Rape plant response rating (rape; [5]): 0; Rape plant response rating (rape; [6]): 0; Plant response rating (0 to 10; 0 is no effect, 10 is complete control), Rape (rape; Rate 250 g/ha, Postemergence): 0; Rape plant response rating (rape; [7]): 0; Soybean plant response rating (soybean; [1]): 0; Soybean plant response rating (soybean; [2]): 0; Plant response rating, Soybean (soybean; [3]): 0; Soybean plant response rating (soybean; [4]): 1; Soybean plant response rating (soybean; [5]): 1; Soybean plant response rating (soybean; [6]): 0; Plant response rating (0 to 10; 0 is no effect, 10 is complete control), Soybean (soybean; Rate 250 g/ha, Postemergence): 2; Soybean plant response rating (soybean; [7]): 3; Sugarbeets plant response rating (sugar beet; [1]): 0; Sugarbeets plant response rating (sugar beet; [2]): 0; Plant response rating, Sugarbeets (sugar beet; [3]): 0; Sugarbeets plant response rating (sugar beet; [4]): 0; Sugarbeets plant response rating (sugar beet; [5]): 0; Sugarbeets plant response rating (sugar beet; [6]): 0; Plant response rating (0 to 10; 0 is no effect, 10 is complete control), Sugarbeets (sugar beet; Rate 250 g/ha, Postemergence): 0; Sugarbeets plant response rating (sugar beet; [7]): 0; Velvetleaf plant response rating (velvetleaf; [1]): 0; Velvetleaf plant response rating (velvetleaf; [2]): 0; Plant response rating, Velvetleaf (velvetleaf; [3]): 0; Velvetleaf plant response rating (velvetleaf; [4]): 0; Velvetleaf plant response rating (velvetleaf; [5]): 0; Velvetleaf plant response rating (velvetleaf; [6]): 0; Plant response rating (0 to 10; 0 is no effect, 10 is complete control), Velvetleaf (velvetleaf; Rate 250 g/ha, Postemergence): 1; Velvetleaf plant response rating (velvetleaf; [7]): 3; Wild oats plant response rating (wild oat; [1]): 0; Wild oats plant response rating (wild oat; [2]): 0; Plant response rating, Wild oats (wild oat; [3]): 2; Wild oats plant response rating (wild oat; [4]): 0; Wild oats plant response rating (wild oat; [5]): 0; Wild oats plant response rating (wild oat; [6]): 0; Plant response rating (0 to 10; 0 is no effect, 10 is complete control), Wild oats (wild oat; Rate 250 g/ha, Postemergence): 0; Wild oats plant response rating (wild oat; [7]): 0; Rice plant response rating (rice; [8]): 0; Rice plant response rating (rice; [9]): 0; Rice plant response rating (rice; [10]): 0; Rice plant response rating (rice; [11]): 0; S. Flatsedge plant response rating (smallflower flatsedge; [8]): 0; S. Flatsedge plant response rating (smallflower flatsedge; [9]): 0; S. Flatsedge plant response rating (smallflower flatsedge; [10]): 0; S. Flatsedge plant response rating (smallflower flatsedge; [11]): 0; Ducksalad plant response rating (duck salad; [8]): 0; Ducksalad plant response rating (duck salad; [9]): 0; Ducksalad plant response rating (duck salad; [10]): 0; Ducksalad plant response rating (duck salad; [11]): 0; Barnyardgrass plant response rating (bamyardgrass; [8]): 0; Barnyardgrass plant response rating (bamyardgrass; [9]): 0; Barnyardgrass plant response rating (bamyardgrass; [10]): 0; Barnyardgrass plant response rating (bamyardgrass; [11]): 0
